Measurements taken from patent US20240024494A1, “SMALL-MOLECULE CONJUGATE AND USE THEREOF” (SHANGHAI MEWSGEN BIOTECHNOLOGY CO., LTD, priority 2020, published 2024).
pIC50: −log10 of the molar value. Read-outs that look alike come from different tables or passages of the source.

Tests used:
[1] = system: tumor cell strains (colon cancer, pancreatic cancer, esophageal squamous carcinoma, gastric cancer, glioma); experiment: Summary of in-vitro proliferation inhibition on tumor cell strains (Examples 19-21); assay type: cell-based, human
Protocol: (§1) A part of the compounds prepared in the examples of the present disclosure were subjected to a tumor cell proliferation inhibition test by using a CCK-8 method. A cell line HCT116 (human colon carcinoma cells) and SW1990 (human pancreatic carcinoma cells) were purchased from Shanghai Meixuan Technology Co., Ltd. Samples (a part of the compounds prepared in the examples) were dissolved in DMSO (Merck), prepared into a concentration of 10 mM, and finally triply diluted in DMEM or McCoy's 5A 1640 medium to 8 concentration gradients. A cell culture solution was collected when a cell culture met a test requirement, 10 μL of the cell culture solution was uniformly coated on a cell counting plate, cells were counted for 3 times under a microscope, and a cell density was calculated by taking an average value; and a 96-well plate (Corning, #3599) was taken, 200 μL of the cell culture solution was added into each well for cell inoculation at a cell concentration of 6×10^3 cells per well, and the inoculated 96-well plate was incubated in a cell incubator containing 5% CO2 at 37° C. for 24 h. An old culture medium was removed by suction, 200 μL of the triply diluted sample DMEM or McCoy's 5A 1640 medium at an initial concentration of 10 μmol/L was added to each well, the DMSO content was controlled to be 1%, three duplicate wells were set, PBS was used as a blank control, and the plate was incubated in the incubator for 72 h. The original DMEM or McCoy's 5A 1640 medium in the 96-well plate and a PBS buffer in a final row were sucked out, a prepared CCK-8 solution (90% DMEM or McCoy's 5A 1640 medium+10% CCK-8) was added, the mixture was incubated in an incubator, and an absorbance was read by using a Biotek microplate reader. Cell growth inhibition rate IC %=(blank control well OD value−administration well OD value)/blank control well OD value×100%.
In-vitro activity test: 100 μL of a cell suspension at a concentration of 4-5×10^4/mL was added to each well of a 96-well plate, and placed in a 5% CO2 incubator at 37° C. After 24 h, a sample solution was added at 10 μL/well, double duplicate wells were set, and a reaction was performed at 37° C. with 5% CO2 for 72 h. 20 μL of 5 mg/ml of an MTT solution was added into each well and reacted for 4 h, a dissolving solution was added at 100 μL/well, the mixture was placed in an incubator, and after dissolution, an OD value at 570 nm was measured with a full-wavelength multifunctional microplate reader. An inhibition rate (IR) and a median inhibitory concentration (IC50) were calculated by using an Excel software.
A part of the compounds prepared in the examples of the present disclosure were subjected to a tumor cell proliferation inhibition test by using a CCK-8 method. Cell lines HCT116 (human colon cancer cells), MGC803 (human gastric cancer cells), and MIA PACA-2 (human pancreatic cancer cells) were purchased from Shanghai Meixuan Technology Co., Ltd. Samples (a part of the compounds prepared in the examples) were dissolved in DMSO (Merck), prepared into a concentration of 10 mM, and finally triply diluted in DMEM or McCoy's 5A 1640 medium to 8 concentration gradients. A cell culture solution was collected when a cell culture met a test requirement, 10 μL of the cell culture solution was uniformly coated on a cell counting plate, cells were counted for 3 times under a microscope, and a cell density was calculated by taking an average value; and a 96-well plate (Corning, #3599) was taken, 200 μL of the cell culture solution was added into each well for cell inoculation at a cell concentration of 6×10^3 cells per well, and the inoculated 96-well plate was incubated in a cell incubator containing 5% CO2 at 37° C. for 24 h. […]

[2] = system: HCT116 (human colon cancer cells); experiment: Tumor cell proliferation inhibition test, CCK-8 method (Example 21); assay type: cell-based
Protocol: as §1, with “method. Cell lines” for “method. A cell line”, “colon cancer cells), MGC803 (human gastric cancer cells),” for “colon carcinoma cells)”, “and MIA PACA-2” for “and SW1990”, “pancreatic cancer” for “pancreatic carcinoma”

[3] = system: MIA PACA-2 (human pancreatic cancer cells); experiment: as above; assay type: cell-based
Protocol: as §1, with “method. Cell lines” for “method. A cell line”, “colon cancer cells), MGC803 (human gastric cancer cells),” for “colon carcinoma cells)”, “and MIA PACA-2” for “and SW1990”, “pancreatic cancer” for “pancreatic carcinoma”

[4] = system: MGC803 (human gastric cancer cells); experiment: as above; assay type: cell-based
Protocol: as §1, with “method. Cell lines” for “method. A cell line”, “colon cancer cells), MGC803 (human gastric cancer cells),” for “colon carcinoma cells)”, “and MIA PACA-2” for “and SW1990”, “pancreatic cancer” for “pancreatic carcinoma”

[5] = CCK-8, 72 h, Table 3, read-out: IC50 HCT116
[6] = CCK-8, 72 h, Table 3, read-out: IC50 MIA PACA-2
[7] = CCK-8, 72 h, Table 3, read-out: IC50 MGC803

Structure (SMILES)	Proliferation inhibition activities IC50 on most tumor cell strains (in words) [1]	pIC50 [2, 5]	pIC50 [3, 6]	pIC50 [4, 7]	pIC50 ([2]; 72 h)	pIC50 ([3]; 72 h)	pIC50 ([4]; 72 h)
COc1cc(C(=O)NCCOCCOCCOCCOCCOCCOCCC(=O)N[C@@H](C(=O)N[C@@H](CCCNC(N)=O)C(=O)Nc2ccc(COC(=O)N3CCN(C(=O)O[C@H]4CC[C@@]5(C)[C@H](CC[C@@H]6[C@@H]5[C@H](O)C(=O)[C@]5(C)C(c7ccc(=O)oc7)CC[C@]65O)C4)CC3)cc2)C(C)C)ccc1NC(=O)[C@@H]1N[C@@H](CC(C)(C)C)[C@](C#N)(c2ccc(Cl)cc2F)[C@H]1c1cccc(Cl)c1F (some centres unmarked) [Compound I-8]	between several to hundreds of nanomoles	7.92	7.06	7.92	–	–	–
COc1cc(C(=O)NCCOCCOCCOCCOCCOCCOCCC(=O)N[C@@H](C(=O)N[C@@H](CCCNC(N)=O)C(=O)Nc2ccc(COC(=O)N3CCC(NC(=O)O[C@H]4CC[C@]5(C)C6CC[C@]7(C)C(c8ccc(=O)oc8)CC[C@]7(O)C6CC[C@@H]5C4)CC3)cc2)C(C)C)ccc1NC(=O)[C@@H]1N[C@@H](CC(C)(C)C)[C@](C#N)(c2ccc(Cl)cc2F)[C@H]1c1cccc(Cl)c1F (some centres unmarked) [Compound I-7]	–	5.89	5.45	6.53	–	–	–
COc1cc(C(=O)NCCOCCOCCOCCOCCC(=O)N[C@H](C(=O)N[C@@H](C)C(=O)Nc2ccc(COC(=O)N3CCC(NC(=O)O[C@H]4CC[C@]5(C)C6CC[C@]7(C)[C@@H](c8ccc(=O)oc8)CC[C@]7(O)C6CC[C@@H]5C4)CC3)cc2)C(C)C)ccc1NC(=O)[C@@H]1N[C@@H](CC(C)(C)C)[C@](C#N)(c2ccc(Cl)cc2F)[C@H]1c1cccc(Cl)c1F (some centres unmarked) [Compound I-11]	between several to hundreds of nanomoles	7.57	7.17	8.00	–	–	–
COc1cc(C(=O)NCCOCCOCCOCCOCCC(=O)N[C@@H](CCSC)C(=O)N[C@@H](CCCNC(N)=O)C(=O)Nc2ccc(COC(=O)O[C@@H](C(=O)O[C@H]3C[C@@]4(O)[C@@H](OC(=O)c5ccccc5)C5[C@](C)(C(=O)[C@H](OC(C)=O)C(=C3C)C4(C)C)[C@@H](O)C[C@H]3OC[C@@]53OC(C)=O)[C@@H](NC(=O)c3ccccc3)c3ccccc3)cc2)ccc1NC(=O)[C@@H]1N[C@@H](CC(C)(C)C)[C@](C#N)(c2ccc(Cl)cc2F)[C@H]1c1cccc(Cl)c1F (some centres unmarked) [Compound I-12]	–	–	–	–	5.28	6.27	6.20
COc1cc(C(=O)NCCOCCOCCOCCC(=O)N[C@H](C(=O)N[C@@H](CCCNC(N)=O)C(=O)Nc2ccc(COC(=O)N3CCC(NC(=O)O[C@H]4CC[C@]5(C)C6CC[C@]7(C)[C@@H](c8ccc(=O)oc8)CC[C@]7(O)C6CC[C@@H]5C4)CC3)cc2)C(C)C)ccc1NC(=O)[C@@H]1N[C@@H](CC(C)(C)C)[C@](C#N)(c2ccc(Cl)cc2F)[C@H]1c1cccc(Cl)c1F (some centres unmarked) [Compound I-5]	–	6.63	6.35	6.94	–	–	–
COc1cc(C(=O)NCCOCCOCCOCCOCCC(=O)N[C@@H](CCSC)C(=O)N[C@@H](CCCNC(N)=O)C(=O)Nc2ccc(COC(=O)N3CCN(C(=O)O[C@H]4CC[C@@]5(C)[C@H](CC[C@@H]6[C@@H]5[C@H](O)C(=O)[C@]5(C)[C@@H](c7ccc(=O)oc7)CC[C@]65O)C4)CC3)cc2)ccc1NC(=O)[C@@H]1N[C@@H](CC(C)(C)C)[C@](C#N)(c2ccc(Cl)cc2F)[C@H]1c1cccc(Cl)c1F [Compound I-13]	between several to hundreds of nanomoles	7.85	7.62	7.85	–	–	–
COc1cc(C(=O)NCCOCCOCCOCCC(=O)N[C@H](C(=O)N[C@@H](CCCNC(N)=O)C(=O)Nc2ccc(COC(=O)N3CCN(C(=O)O[C@H]4CC[C@@]5(C)[C@H](CC[C@@H]6[C@@H]5[C@H](O)C(=O)[C@]5(C)C(c7ccc(=O)oc7)CC[C@]65O)C4)CC3)cc2)C(C)C)ccc1NC(=O)[C@@H]1N[C@@H](CC(C)(C)C)[C@](C#N)(c2ccc(Cl)cc2F)[C@H]1c1cccc(Cl)c1F (some centres unmarked) [Compound I-2]	between several to hundreds of nanomoles	7.59	6.67	7.27	–	–	–
COc1cc(C(=O)NCCOCCOCCOCCOCCC(=O)N[C@@H](CCSC)C(=O)N[C@@H](CCCNC(N)=O)C(=O)Nc2ccc(COC(=O)N3CCC(NC(=O)O[C@H]4CC[C@]5(C)C6CC[C@]7(C)[C@@H](c8ccc(=O)oc8)CC[C@]7(O)C6CC[C@@H]5C4)CC3)cc2)ccc1NC(=O)[C@@H]1N[C@@H](CC(C)(C)C)[C@](C#N)(c2ccc(Cl)cc2F)[C@H]1c1cccc(Cl)c1F (some centres unmarked) [Compound I-14]	between several to hundreds of nanomoles	6.32	6.17	6.60	–	–	–
COc1cc(C(=O)NCCOCCOCCOCCOCCC(=O)N[C@H](C(=O)N[C@@H](C)C(=O)Nc2ccc(COC(=O)N3CCN(C(=O)O[C@H]4CC[C@@]5(C)[C@H](CC[C@@H]6[C@@H]5[C@H](O)C(=O)[C@]5(C)[C@@H](c7ccc(=O)oc7)CC[C@]65O)C4)CC3)cc2)C(C)C)ccc1NC(=O)[C@@H]1N[C@@H](CC(C)(C)C)[C@](C#N)(c2ccc(Cl)cc2F)[C@H]1c1cccc(Cl)c1F [Compound I-10]	–	6.40	6.35	6.51	–	–	–
